Patent US20250230193A1, “CYCLIC COMPOUND HAVING SELECTIVE KRAS INHIBITORY EFFECT ON HRAS AND NRAS” (CHUGAI SEIYAKU KABUSHIKI KAISHA, priority 2022, published 2025)
*1 amine or outer side, *2 acyl side, *3 side chain or, on linkers, in order; H or OH if unused. Where a SMILES comes first, the peptide text is derived from it. Bridges are numbered along the chain shown (N, C = ends). [ ]: non-standard residue; d: D form. The star is where a group is joined. hPhe(3-Cl-4-CF3) = N[C@@H](CCc1ccc(C(F)(F)F)c(Cl)c1)C(=O)O; X11 = C=CCN([C@@H](Cc1ccc(C(F)(F)F)cc1)C(=O)[*:2])[*:1]; NPrPhe(4-CF3) = CCCN[C@@H](Cc1ccc(C(F)(F)F)cc1)C(=O)O; NMeGly(cPent) = CN[C@H](C(=O)O)C1CCCC1; Pro(4,4-F2) = O=C(O)[C@@H]1CC(F)(F)CN1; NMeD = CN[C@@H](CC(=O)O)C(=O)O; NMeL = CN[C@@H](CC(C)C)C(=O)O; Morpholide = C1CN(*)CCO1; NMeA = CN[C@@H](C)C(=O)O; Ac5c = NC1(C(=O)O)CCCC1; Aze = O=C(O)[C@@H]1CCN1; NEtG = CCNCC(=O)O; Sar = CNCC(=O)O

Legend:
[1] = target: GDP-bound HRAS wild-type protein (Homo sapiens, UniProt P01112); test: Binding to HRAS by surface plasmon resonance (SPR), Single Cycle Kinetics
Sequence of GDP-bound HRAS wild-type protein (P01112 whole entry): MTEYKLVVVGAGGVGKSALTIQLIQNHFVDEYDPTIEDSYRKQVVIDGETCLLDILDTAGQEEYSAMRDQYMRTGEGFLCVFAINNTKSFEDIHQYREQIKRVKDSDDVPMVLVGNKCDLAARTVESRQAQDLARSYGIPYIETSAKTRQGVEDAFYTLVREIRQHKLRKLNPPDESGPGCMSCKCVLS

[2] = target: GDP-bound NRAS wild-type protein (Homo sapiens, UniProt P01111); test: Binding to NRAS by surface plasmon resonance (SPR), Single Cycle Kinetics
Sequence of GDP-bound NRAS wild-type protein (P01111 whole entry): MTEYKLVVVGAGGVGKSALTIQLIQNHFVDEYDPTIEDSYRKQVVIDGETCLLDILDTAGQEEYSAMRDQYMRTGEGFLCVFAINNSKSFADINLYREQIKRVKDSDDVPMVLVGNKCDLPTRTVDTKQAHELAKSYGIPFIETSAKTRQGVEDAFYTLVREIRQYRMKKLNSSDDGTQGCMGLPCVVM

[3] = KD ratio, GDP-bound HRAS wild-type vs GDP-bound KRAS wild-type, SPR
[4] = KD ratio, GDP-bound NRAS wild-type vs GDP-bound KRAS wild-type, SPR
[5] = SPR, GDP-bound HRAS wild-type vs GDP-bound KRAS wild-type
[6] = SPR, GDP-bound NRAS wild-type vs GDP-bound KRAS wild-type
[7] = SPR, GDP-bound wild-type proteins

Compound: CCO[C@@H]1C[C@H]2C(=O)NC3(CCC3)C(=O)N(C)[C@@H](C3CCCC3)C(=O)N(C)[C@H](C(=O)N3C[C@@H](C)O[C@@H](C)C3)CC(=O)N(C)[C@@H](CC(C)C)C(=O)N[C@@H]([C@@H](C)CC)C(=O)N(C)CC(=O)N(C)[C@H]3CCCCCN(C3=O)[C@@H](Cc3ccc(F)cc3)C(=O)N(C)CC(=O)N[C@@H](CCc3ccc(C(F)(F)F)c(Cl)c3)C(=O)N2C1 [PP1153]
- HRAS/KRAS (ratio of KD value with respect to HRAS to KD value with respect to KRAS) [1, 3]: B (a compound having 3 or more and less than 10 is denoted as B)
- NRAS/KRAS (ratio of KD value with respect to NRAS to KD value with respect to KRAS) [2, 4]: B (a compound having 3 or more and less than 10 is denoted as B)

Compound: CCCN1C(=O)CN(C)C(=O)CN(CC)C(=O)[C@H]([C@@H](C)CC)NC(=O)[C@H](CC(C)C)N(C)C(=O)C[C@@H](C(=O)N(C)C)NC(=O)[C@H](C2CCCC2)N(C)C(=O)C2(CCCC2)NC(=O)[C@@H]2CC(F)(F)CN2C(=O)[C@H](CCc2ccc(C(F)(F)F)c(Cl)c2)NC(=O)CN(C)C(=O)[C@@H]1Cc1ccc(C(F)(F)F)cc1 [PP0369] ([NMeL]I[NEtG][Sar][NPrPhe(4-CF3)][Sar][hPhe(3-Cl-4-CF3)][Pro(4,4-F2)][Ac5c][NMeGly(cPent)]D-NMe2; lactam N-11)
- HRAS/KRAS (ratio of KD for GDP-bound HRAS wild-type to KD for KRAS) ([1]; SPR): C (A compound having a KD ratio of 0.1 or more and less than 3 is denoted as C)
- NRAS/KRAS (ratio of KD for GDP-bound NRAS wild-type to KD for KRAS) ([2]; SPR): B (a compound having 3 or more and less than 10 is denoted as B)

Compound: CCC[C@H]1C(=O)N[C@@H](CC(C)C)C(=O)N(CC)CC(=O)N(C)[C@H]2C/C=C\CCN(C2=O)[C@@H](Cc2ccc(C)cc2)C(=O)N(C)CC(=O)N[C@@H](CCc2cc(F)c(C(F)(F)F)c(F)c2)C(=O)N2C[C@H](OCC)C[C@H]2C(=O)NC2(CC(C)(C)C2)C(=O)N(C)[C@@H](C2CCCC2)C(=O)N(C)[C@H](C(=O)N(C)C)CC(=O)N1C [PP2516]
- HRAS/KRAS (ratio of KD value with respect to HRAS to KD value with respect to KRAS) [1, 5]: B (a compound having 3 or more and less than 10 is denoted as B)
- NRAS/KRAS (ratio of KD value with respect to NRAS to KD value with respect to KRAS) [2, 6]: A (a compound having 10 or more and less than 20 is denoted as A)

Compound: CCOC[C@H]1C(=O)N[C@@H]([C@@H](C)OCC)C(=O)N2CCC[C@H]2C(=O)N(C)[C@H]2C/C=C\CCN(C2=O)[C@@H](Cc2ccc(C)cc2)C(=O)N(C)CC(=O)N[C@@H](CCc2ccc(C(F)(F)F)c(OC)c2)C(=O)N2C[C@@H](C)C[C@H]2C(=O)NC2(CC(C)(C)C2)C(=O)N(C)[C@@H](C2CCCC2)C(=O)N(C)[C@H](C(=O)N(C)CC)CC(=O)N1C [PP2433]
- HRAS/KRAS (ratio of KD value with respect to HRAS to KD value with respect to KRAS) [1, 5]: A (a compound having 10 or more and less than 20 is denoted as A)
- NRAS/KRAS (ratio of KD value with respect to NRAS to KD value with respect to KRAS) [2, 6]: AA (a compound having 20 or more is denoted as AA)

Compound: CCC(CC)[C@H]1C(=O)N(C)[C@H](C(=O)N2CCCCC2)CC(=O)N(C)[C@@H](COC)C(=O)N[C@@H]([C@@H](C)CC)C(=O)N(C)CC(=O)N(C)[C@H]2C/C=C\CCN(C2=O)[C@@H](Cc2ccc(C(F)(F)F)cc2)C(=O)N(C)CC(=O)N[C@@H](CCc2ccc(Cl)c(Cl)c2)C(=O)N2C[C@H](OC(C)C)C[C@H]2C(=O)NC2(CC(C)(C)C2)C(=O)N1C [PP2612]
- HRAS/KRAS (ratio of KD value with respect to GDP-bound HRAS wild-type protein to KD value with respect to KRAS) ([1]; class symbols): A (a compound having 10 or more and less than 20 is denoted as A)
- NRAS/KRAS (ratio of KD value with respect to GDP-bound NRAS wild-type protein to KD value with respect to KRAS) ([2]; class symbols): AA (a compound having 20 or more is denoted as AA)

Compound: C=CCN1C(=O)[C@@H]2CCN2C(=O)[C@H](C)N(C)C(=O)[C@H]([C@@H](C)CC)NC(=O)[C@H](CC(C)C)N(C)C(=O)C[C@@H](C(=O)N2CCOCC2)N(C)C(=O)[C@H](C2CCCC2)N(C)C(=O)C2(CCCC2)NC(=O)[C@@H]2CCCN2C(=O)[C@H](CCc2ccc(C(F)(F)F)c(Cl)c2)NC(=O)CN(C)C(=O)[C@@H]1Cc1ccc(C(F)(F)F)cc1 [PP0114] ([NMeL]I[NMeA][Aze][X11][Sar][hPhe(3-Cl-4-CF3)]P[Ac5c][NMeGly(cPent)][NMeD]-Morpholide; lactam N-11)
- HRAS/KRAS (ratio of KD for GDP-bound HRAS wild-type to KD for KRAS) ([1]; SPR): C (A compound having a KD ratio of 0.1 or more and less than 3 is denoted as C)
- NRAS/KRAS (ratio of KD for GDP-bound NRAS wild-type to KD for KRAS) ([2]; SPR): C (A compound having a KD ratio of 0.1 or more and less than 3 is denoted as C)

Compound: CC[C@H](C)[C@@H]1NC(=O)[C@H](CC(C)C)N(C)C(=O)C[C@@H](C(=O)N(C)C)N(C)C(=O)[C@H](C2CCCC2)N(C)C(=O)C2(CCC2)NC(=O)[C@@H]2C[C@H](C)CN2C(=O)[C@H](CCc2ccc(C(F)(F)F)c(OC)c2)NC(=O)CN(C)C(=O)[C@H](Cc2ccc(C)cc2)N2CC/C=C\C[C@@H](C2=O)N(C)C(=O)CN(C)C1=O [PP1865]
- HRAS/KRAS (ratio of KD value for HRAS to KD value for KRAS) [1, 3]: B (a compound having 3 or more and less than 10 is denoted as B)
- NRAS/KRAS (ratio of KD value for NRAS to KD value for KRAS) [2, 4]: A (a compound having 10 or more and less than 20 is denoted as A)

Compound: CCC[C@H]1C(=O)N[C@@H]([C@@H](C)CC)C(=O)N(C)CC(=O)N(C)[C@H]2C/C=C\CCN(C2=O)[C@@H](Cc2ccc(C)cc2)C(=O)N(C)CC(=O)N[C@@H](CCc2cc(F)c(C(F)(F)F)c(F)c2)C(=O)N2C[C@H](OCC)C[C@H]2C(=O)N(C)C2(CCC2)C(=O)N(C)[C@@H](C2CCCC2)C(=O)N(C)[C@H](C(=O)N2CCCC2)CC(=O)N1C [PP3121, (2S,8S,12R,14S,20S,23S,27S,30S,36S,38Z)-20-cyclopentyl-8-[2-[3,5-difluoro-4-(trifluoromethyl)phenyl]ethyl]-12-ethoxy-4,16,19,22,26,32,35-heptamethyl-30-[(1S)-1-methylpropyl]-27-propyl-2-(p-tolylmethyl)-23-(pyrrolidine-1-carbonyl)spiro[1,4,7,10,16,19,22,26,29,32,35-undecazatricyclo[34.5.1.0^10,14]dotetracont-38-ene-17,1′-cyclobutane]-3,6,9,15,18,21,25,28,31,34,42-undecone]
- HRAS/KRAS (ratio of KD value with respect to GDP-bound HRAS wild-type protein to KD value with respect to KRAS) [1, 7]: A (a compound having 10 or more and less than 20 is denoted as A)
- NRAS/KRAS (ratio of KD value with respect to GDP-bound NRAS wild-type protein to KD value with respect to KRAS) [2, 7]: A (a compound having 10 or more and less than 20 is denoted as A)

Compound: CCC[C@H]1C(=O)N[C@@H]([C@@H](C)CC)C(=O)N(C)CC(=O)N(C)[C@H]2C/C=C\CCN(C2=O)[C@@H](Cc2ccc(C(F)(F)F)cc2)C(=O)N(C)CC(=O)N[C@@H](CCc2ccc(Cl)c(Cl)c2)C(=O)N2C[C@H](OCC)C[C@H]2C(=O)NC2(CC(C)(C)C2)C(=O)N(C)[C@@H](CC2CCC2)C(=O)N(C)[C@H](C(=O)N(C)C)CC(=O)N1C [PP2766]
- HRAS/KRAS (ratio of KD value with respect to GDP-bound HRAS wild-type protein to KD value with respect to KRAS) ([1]; class symbols): A (a compound having 10 or more and less than 20 is denoted as A)
- NRAS/KRAS (ratio of KD value with respect to GDP-bound NRAS wild-type protein to KD value with respect to KRAS) ([2]; class symbols): A (a compound having 10 or more and less than 20 is denoted as A)

Compound: CCCN1CC(=O)NC2(CCC2)C(=O)N(C)[C@@H](C2CCCC2)C(=O)N(C)[C@H](C(=O)N(C)C)CC(=O)N(C)[C@@H](CC)C(=O)N[C@@H]([C@@H](C)CC)C(=O)N(C)CC(=O)N(C)[C@H]2C/C=C\CCN(C2=O)[C@@H](Cc2ccc(C(F)(F)F)cc2)C(=O)N(C)CC(=O)N[C@@H](CCc2cc(F)c(C(F)(F)F)c(F)c2)C1=O [PP1141]
- HRAS/KRAS (ratio of KD value with respect to HRAS to KD value with respect to KRAS) [1, 3]: A (a compound having 10 or more and less than 20 is denoted as A)
- NRAS/KRAS (ratio of KD value with respect to NRAS to KD value with respect to KRAS) [2, 4]: AA (a compound having 20 or more is denoted as AA)
